From article PMC5007552, “The hVps34‐SGK3 pathway alleviates sustained PI3K/Akt inhibition by stimulating mTORC1 and tumour growth” (The EMBO Journal, 2016)

Legend:
[1] = tested on: NDRG1 phosphorylation in ZR-75-1 cells; experiment: Immunoblot of NDRG1 (Thr346) phosphorylation in breast cancer cells; format: cell-based, human; settings: 1 μM, 1 h; ZR-75-1, CAMA-1 (and T47D for PI3K inhibitors)
Description: Cell lysates were subjected to immunoblot analysis with the indicated antibodies. • ZR‐75‐1 cells cultured in serum in the absence of Akt inhibitor were treated for 1 h with the indicated concentrations of VPS34‐IN1. […] One hour prior to lysis, the cells were incubated in the presence or absence of 1 μM VPS34‐IN1. SGK3 was immunoprecipitated from lysates and subjected to in vitro kinase assay by measuring phosphorylation of the Crosstide substrate peptide in the presence of 0.1 mM [γ‐^32P]ATP in a 30 min 30°C reaction (upper panel). Kinase reactions are presented as means ± SD for triplicate reaction. Immunoprecipitates (IP) and lysates were analysed by immunoblot with the indicated antibodies. […] SGK3 was immunoprecipitated from the lysates and subjected to in vitro kinase assay as in (C). Kinase reactions are presented as means ± SD for triplicate reaction. Immunoprecipitates (IP) and lysates (lower panel) were also subjected to immunoblot analysis with the indicated antibodies. • ZR‐75‐1 cells were cultured in the absence or presence of 1 μM MK‐2206 for 5 days. Cells were then treated in the absence or presence of 0.1 μM AZD8055 or 0.1 μM rapamycin for 1 h. SGK3 was immunoprecipitated and subjected to in vitro kinase assay as in (C). Kinase reactions are presented as means ± SD for triplicate reaction. The immunoprecipitates (IP) and lysates were analysed with the indicated antibodies.
One hour prior to lysis, the cells were incubated in the presence of absence of 0.3 μM SAR405. SGK3 was immunoprecipitated from lysates and subjected to in vitro kinase assay by measuring phosphorylation of the Crosstide substrate peptide in the presence of 0.1 mM [γ‐^32P]ATP in a 30 min 30°C reaction (upper panel). Kinase reactions are presented as means ± SD for triplicate reaction. Immunoprecipitates (IP) and lysates were also analysed by immunoblot with the indicated antibodies.
(§1) The result for each kinase is presented as a mean kinase activity of the reaction taken in triplicate relative to a control reaction where the inhibitors were omitted. […] SGK3 was immunoprecipitated from cell lysates and subjected to in vitro kinase assay by measuring phosphorylation of the Crosstide substrate peptide in the presence of 0.1 mM [γ‐^32P]ATP in a 30 min 30°C reaction (upper panel). Kinase reactions are presented as means ± SD for triplicate reaction.
HEK293 cells were purchased from the American Tissue Culture Collection (ATCC). Cells were cultured in RPMI or DMEM media supplemented with 10% (v/v) foetal bovine serum, 2 mM L‐glutamine, 100 U/ml penicillin and 0.1 mg/ml streptomycin. Inhibitor treatments were carried out as described in figure legends. During 5 days inhibitor treatments, the media was changed after 72‐h intervals. The cells were lysed in buffer containing 50 mM Tris–HCl (pH 7.5), 150 mM NaCl, 1 mM EDTA, 1 mM EGTA, 1 mM sodium orthovanadate, 10 mM sodium glycerophosphate, 10 mM sodium pyrophosphate, 0.27 M sucrose, 0.1% (v/v) 2‐mercaptoethanol, 1 mM benzamidine and 0.1 mM PMSF. Lysates were clarified by centrifugation at 16,000 g for 10 min at 4°C. Protein concentration was calculated using Bradford assay (Thermo Scientific). Immunoblotting and immunoprecipitation were performed using standard procedures. The signal was developed using ECL Western Blotting Detection Kit (Amersham) on Amersham Hyperfilm ECL film (Amersham).

MLK1 = MLK1 (Homo sapiens, UniProt P80192); experiment: IC50 on recombinant MLK1; format: biochemical; settings: Fig 5B / Appendix Fig S1B, recombinant kinase, unit inferred
Chain of MLK1 (P80192 whole entry, species assumed): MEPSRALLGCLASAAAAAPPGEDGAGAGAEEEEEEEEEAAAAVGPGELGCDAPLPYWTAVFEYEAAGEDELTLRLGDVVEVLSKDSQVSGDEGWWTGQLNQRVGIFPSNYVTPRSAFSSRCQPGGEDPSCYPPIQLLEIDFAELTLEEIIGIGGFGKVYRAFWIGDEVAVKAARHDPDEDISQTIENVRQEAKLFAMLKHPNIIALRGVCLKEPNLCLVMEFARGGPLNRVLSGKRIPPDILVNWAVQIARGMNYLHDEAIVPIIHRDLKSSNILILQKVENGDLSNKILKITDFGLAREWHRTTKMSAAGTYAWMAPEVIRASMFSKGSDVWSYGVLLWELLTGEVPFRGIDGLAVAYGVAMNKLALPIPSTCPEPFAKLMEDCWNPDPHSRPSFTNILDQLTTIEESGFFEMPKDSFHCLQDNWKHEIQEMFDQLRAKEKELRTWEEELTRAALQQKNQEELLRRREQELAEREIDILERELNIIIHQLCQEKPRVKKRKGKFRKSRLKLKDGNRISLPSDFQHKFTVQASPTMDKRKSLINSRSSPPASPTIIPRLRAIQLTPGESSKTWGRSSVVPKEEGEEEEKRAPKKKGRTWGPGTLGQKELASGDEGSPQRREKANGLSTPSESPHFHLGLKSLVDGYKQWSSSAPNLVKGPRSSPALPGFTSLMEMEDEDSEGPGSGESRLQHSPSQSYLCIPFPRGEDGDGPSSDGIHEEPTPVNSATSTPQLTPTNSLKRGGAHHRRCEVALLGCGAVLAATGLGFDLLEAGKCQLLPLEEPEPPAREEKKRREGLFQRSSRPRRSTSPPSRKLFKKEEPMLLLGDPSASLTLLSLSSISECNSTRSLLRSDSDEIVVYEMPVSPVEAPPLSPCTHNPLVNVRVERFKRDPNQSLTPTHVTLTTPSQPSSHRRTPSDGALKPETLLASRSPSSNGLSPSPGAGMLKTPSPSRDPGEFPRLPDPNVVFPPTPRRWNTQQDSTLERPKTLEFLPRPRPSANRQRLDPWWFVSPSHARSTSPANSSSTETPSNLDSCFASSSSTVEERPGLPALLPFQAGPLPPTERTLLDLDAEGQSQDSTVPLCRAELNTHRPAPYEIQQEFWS
Description: as §1
(§2) Appendix Figure S1. […] (A) Chemical struc tures of
(§3) Sano/f_i-14g, -14i and -14n compounds. (B) IC50 values of inhibitors on indicated recombinant k inases. […]

PKBa = PKBa (Homo sapiens, UniProt P31749); experiment: IC50 on recombinant PKBa (Akt1); format: biochemical; settings: Fig 5B / Appendix Fig S1B, recombinant kinase, unit inferred
Chain of PKBa (P31749 whole entry): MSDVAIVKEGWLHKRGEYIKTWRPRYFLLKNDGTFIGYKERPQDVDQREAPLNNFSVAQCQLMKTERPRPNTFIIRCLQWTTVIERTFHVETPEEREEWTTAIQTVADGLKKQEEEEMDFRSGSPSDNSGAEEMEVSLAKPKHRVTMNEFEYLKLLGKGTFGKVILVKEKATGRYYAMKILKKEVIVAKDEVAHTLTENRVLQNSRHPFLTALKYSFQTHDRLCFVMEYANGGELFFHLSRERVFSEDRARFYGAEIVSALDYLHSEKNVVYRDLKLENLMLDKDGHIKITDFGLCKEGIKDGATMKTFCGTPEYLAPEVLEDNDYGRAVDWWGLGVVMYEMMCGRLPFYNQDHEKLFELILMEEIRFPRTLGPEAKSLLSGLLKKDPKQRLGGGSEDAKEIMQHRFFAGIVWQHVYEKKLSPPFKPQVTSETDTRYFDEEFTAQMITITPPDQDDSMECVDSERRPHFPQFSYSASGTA
Description: as §1, §2, §3

MLK3 = MLK3 (Homo sapiens, UniProt Q16584); experiment: IC50 on recombinant MLK3; format: biochemical; settings: Fig 5B / Appendix Fig S1B, recombinant kinase, unit inferred
Chain of MLK3 (Q16584 whole entry, species assumed): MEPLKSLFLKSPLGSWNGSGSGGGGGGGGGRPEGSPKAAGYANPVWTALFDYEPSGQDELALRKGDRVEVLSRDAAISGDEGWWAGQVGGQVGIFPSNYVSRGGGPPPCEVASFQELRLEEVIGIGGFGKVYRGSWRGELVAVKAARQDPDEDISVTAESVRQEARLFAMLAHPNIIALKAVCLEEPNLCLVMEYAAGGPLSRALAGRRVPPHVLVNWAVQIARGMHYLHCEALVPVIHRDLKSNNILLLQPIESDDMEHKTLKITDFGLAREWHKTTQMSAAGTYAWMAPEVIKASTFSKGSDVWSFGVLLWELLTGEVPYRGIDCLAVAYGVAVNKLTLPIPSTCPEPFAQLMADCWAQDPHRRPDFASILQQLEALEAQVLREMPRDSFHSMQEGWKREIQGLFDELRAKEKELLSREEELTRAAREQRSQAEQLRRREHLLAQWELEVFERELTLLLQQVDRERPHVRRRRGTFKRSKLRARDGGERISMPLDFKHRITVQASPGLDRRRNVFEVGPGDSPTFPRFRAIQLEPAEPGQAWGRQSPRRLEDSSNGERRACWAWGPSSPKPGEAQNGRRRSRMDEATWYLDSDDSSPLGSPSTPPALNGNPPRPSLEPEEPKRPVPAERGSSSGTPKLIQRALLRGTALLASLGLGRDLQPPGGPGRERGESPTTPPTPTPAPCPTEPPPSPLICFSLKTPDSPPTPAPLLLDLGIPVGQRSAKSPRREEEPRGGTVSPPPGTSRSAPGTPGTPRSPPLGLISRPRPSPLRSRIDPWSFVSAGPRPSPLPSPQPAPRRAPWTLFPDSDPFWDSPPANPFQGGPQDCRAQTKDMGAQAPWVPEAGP
Description: as §1, §2, §3

SGK3 = biological target: T1, SGK3 (Homo sapiens, UniProt Q96BR1); experiment: IC50 on recombinant SGK3; format: biochemical; settings: recombinant kinase
T1 sequence (Q96BR1 1-496): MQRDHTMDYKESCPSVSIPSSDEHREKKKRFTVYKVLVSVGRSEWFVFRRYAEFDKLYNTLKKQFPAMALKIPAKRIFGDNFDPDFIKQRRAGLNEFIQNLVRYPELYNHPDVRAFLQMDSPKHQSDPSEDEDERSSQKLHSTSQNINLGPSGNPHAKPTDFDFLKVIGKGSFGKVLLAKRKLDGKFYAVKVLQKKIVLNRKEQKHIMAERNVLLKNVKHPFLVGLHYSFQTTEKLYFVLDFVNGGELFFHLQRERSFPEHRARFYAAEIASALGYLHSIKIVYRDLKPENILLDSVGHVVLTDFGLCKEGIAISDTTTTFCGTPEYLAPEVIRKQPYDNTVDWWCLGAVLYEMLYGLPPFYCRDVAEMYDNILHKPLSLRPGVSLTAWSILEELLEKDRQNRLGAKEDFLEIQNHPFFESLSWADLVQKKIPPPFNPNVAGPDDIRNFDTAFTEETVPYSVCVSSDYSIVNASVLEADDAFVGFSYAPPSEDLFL
Description: as §1, §2, §3

Row | IC50 (MLK1) [nM] | IC50 (PKBa) [nM] | IC50 (MLK3) [nM] | IC50 (SGK3) [nM] | SMILES | phosphorylation of PRAS40 (Thr246) and NDRG1 (Thr346) [1]
1 | – | – | – | – | NC1(c2ccc(-c3nc4ccn5c(=O)[nH]nc5c4cc3-c3ccccc3)cc2)CCC1 [MK-2206] | inhibited
2 | 215 | > 10000 | 84 | 4 | Nc1n[nH]c2nc(-c3ccc(NS(=O)(=O)c4cc(Cl)ccc4Cl)cc3)cnc12 [14h] | –
